Common to all, as to type: cell-based
In experiment [1] the test system is Beclin 1 gene. The experiment in a line: Beclin 1 gene expression promoting effect in human senescent fibroblasts (quantitative real-time PCR). The method, then:
Senescent fibroblasts were prepared by the following procedure.
Normal human fibroblasts (NB1RGB, RIKEN BRC Cell Bank) were cultured until confluent in D-MEM medium (manufactured by Sigma-Aldrich) to which 10% fetal bovine serum (manufactured by MP Biomedicals) was added. Thereafter, the cells were treated with 250 μM aqueous hydrogen peroxide for 2 hours, and cultured for 24 hours in D-MEM medium to which fresh 10% fetal bovine serum was added. The treatment with aqueous hydrogen peroxide and the cell culture operation were repeated three times, and the obtained fibroblasts were used as senescent fibroblasts.
The prepared senescent fibroblasts were prepared at a seeding density of 10000 cells/cm^2 and cultured for 24 hours in D-MEM medium (manufactured by Sigma-Aldrich) to which 10% fetal bovine serum (manufactured by MP Biomedicals) was added. […]
Then, using Nucleospin (registered trademark) RNA kit (manufactured by Takara Bio Inc.), RNA was extracted from senescent fibroblasts or normal human fibroblasts in each example, and cDNA was synthesized from the obtained RNA. Next, using this cDNA as a template, by quantitative real-time PCR, the expression level of each gene was quantified using primers (manufactured by Takara Bio Inc.) specific to the LC3 gene, ATG5 gene, and Beclin 1 gene, respectively. […]

Experiment [2] relates to LC3 gene. The experiment in a line: LC3 gene expression promoting effect in human neuroblastoma in the presence of amyloid β. The method, then:
(§1) In the presence of an autophagy activator, the expression levels of the LC3 gene, ATG5 gene, and Beclin 1 gene in human neuroblastoma (SH-SY5Y; obtained from ATCC) were measured by the following test method, and the effect of promoting the expression of the LC3 gene, ATG5 gene, and Beclin 1 gene by an autophagy activator was evaluated.
(§2) In the following examples and comparative examples, tests were performed by adding amyloid β, which is known to cause a decrease in autophagy in nerve cells, to each medium.
(§3) SH-SY5Y cells were prepared at a seeding density of 10000 cells/cm^2 and cultured for 24 hours in D-MEM medium/Ham's F-12 medium (manufactured by Sigma-Aldrich) to which 10% fetal bovine serum (manufactured by MP Biomedicals) was added. Next, in Example 15, the inositol derivative A dissolved in purified water was added to the medium such that the final concentration of the inositol derivative A was 10-4% (V/V). […]
(§4) Then, using Nucleospin (registered trademark) RNA kit (manufactured by Takara Bio Inc.), RNA was extracted from SH-SY5Y cells in each example, and cDNA was synthesized from the obtained RNA. Next, using this cDNA as a template, by quantitative real-time PCR, the expression level of each gene was quantified using primers (manufactured by Takara Bio Inc.) specific to the LC3 gene, ATG5 gene, and Beclin 1 gene, respectively. […]

Experiment [3] has as its system Beclin 1 gene. The experiment in a line: Beclin 1 gene expression promoting effect in human neuroblastoma in the presence of amyloid β. On the procedure:
as §1, §2, §3, §4

[4] abbreviates: SH-SY5Y cells with amyloid β, compared to Reference Example 3 (purified water only, no amyloid β).
The mark [5] stands for this setting: SH-SY5Y cells, 20 μM amyloid β present, 48 hours, 10^−3% (V/V) inositol or inositol derivative A, with the vitamin derivative of the example where added, Reference Example 3 (purified water, no amyloid β) = 1.00.

The source of these data is US20230364119A1, “AUTOPHAGY ACTIVATOR” (Resonac Corporation, priority 2020, published 2023).

For the compound `O[C@H]1[C@H](O)[C@@H](O)[C@H](O)[C@@H](O)[C@H]1O` [Comparative Example 2, myo-inositol], the “Relative gene expression level Beclin 1” value came to 1.30 in experiment [1] (24 hours, 10^−3% (V/V) inositol or inositol derivative A, with the vitamin derivative of the example where added, GAPDH-standardized, Comparative Example 1 (purified water) = 1.00) and 1.31 in experiment [3] (setting [5]). Further, the “expression level of the Beclin 1 gene, in words” value in experiment [1] (compared to Comparative Example 1 (purified water only)) is “more increased”; in experiment [3] (setting [4]), “slightly increased”. Moreover, the “expression level of the LC3 gene, in words” value in experiment [2] (setting [4]) was “slightly increased”. For the same compound, the “Relative gene expression level LC3” value in experiment [2] (setting [5]) was 1.41.
